Source: patent US20260125400A1, “TYK2 DEGRADERS AND USES THEREOF” (Kymera Therapeutics, Inc., priority 2023, published 2026)

biological target: T1, TYK2 (Homo sapiens, UniProt P29597); test: TYK2 MSD degradation in OCI-LY10 cells; assay type: cell-based; details: TYK2 degradation in OCI-LY10 cells, 4 to 24 hours incubation
T1 construct: Degradation of TYK2 in cells was quantitatively measured using Meso Scale Discovery (MSD) technology; endogenous in cells; host or cells: OCI-LY10
Method in brief: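 OCI-LY10 cells were treated with 9-dose 1:3 series (top 1 to 10 μM final) for 4 to 24 hours at 37° C. Lysate TYK2 quantified by MSD sandwich immunoassay; DC50 and Dmax from four-parameter inhibitor vs. response fit.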

T1 sequence (P29597 whole entry): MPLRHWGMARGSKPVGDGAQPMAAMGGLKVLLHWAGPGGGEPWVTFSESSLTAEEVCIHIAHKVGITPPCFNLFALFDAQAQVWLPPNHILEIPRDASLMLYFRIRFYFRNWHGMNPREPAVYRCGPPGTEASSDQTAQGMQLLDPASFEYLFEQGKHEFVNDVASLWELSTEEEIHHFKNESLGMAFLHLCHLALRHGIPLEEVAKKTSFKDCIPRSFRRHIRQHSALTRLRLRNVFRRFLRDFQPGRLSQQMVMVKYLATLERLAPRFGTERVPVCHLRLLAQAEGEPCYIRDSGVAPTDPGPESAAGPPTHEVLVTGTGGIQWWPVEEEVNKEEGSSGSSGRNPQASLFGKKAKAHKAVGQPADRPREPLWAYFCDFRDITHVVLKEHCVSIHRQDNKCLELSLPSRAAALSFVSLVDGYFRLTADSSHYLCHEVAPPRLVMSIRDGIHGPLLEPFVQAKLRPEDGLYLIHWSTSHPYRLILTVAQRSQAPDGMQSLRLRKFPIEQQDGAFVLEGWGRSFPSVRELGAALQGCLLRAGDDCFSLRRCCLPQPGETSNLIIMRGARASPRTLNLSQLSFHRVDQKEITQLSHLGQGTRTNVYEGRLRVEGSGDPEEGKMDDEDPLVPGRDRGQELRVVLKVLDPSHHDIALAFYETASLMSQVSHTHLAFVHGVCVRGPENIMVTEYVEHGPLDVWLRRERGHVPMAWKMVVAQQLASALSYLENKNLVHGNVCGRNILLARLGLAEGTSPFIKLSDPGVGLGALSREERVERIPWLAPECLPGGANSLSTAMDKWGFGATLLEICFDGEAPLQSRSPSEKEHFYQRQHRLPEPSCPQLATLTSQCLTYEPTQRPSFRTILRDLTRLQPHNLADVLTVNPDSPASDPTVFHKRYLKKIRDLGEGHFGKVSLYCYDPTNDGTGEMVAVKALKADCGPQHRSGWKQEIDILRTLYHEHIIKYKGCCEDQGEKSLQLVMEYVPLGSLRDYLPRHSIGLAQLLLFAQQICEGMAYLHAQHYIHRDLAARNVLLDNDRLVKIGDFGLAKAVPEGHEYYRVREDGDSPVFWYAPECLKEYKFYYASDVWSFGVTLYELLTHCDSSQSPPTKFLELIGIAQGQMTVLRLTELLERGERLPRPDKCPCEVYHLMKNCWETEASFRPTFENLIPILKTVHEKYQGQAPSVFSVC

Row | Compound | TYK2 MSD OCI-LY10 Dmax %
1 | CNc1cc(N2CCc3c(CN4CCC(N5CC6(CCN(C(=O)c7cc(C)c(Cl)c(N8CCC(=O)NC8=O)c7)CC6)C5)C(F)(F)C4)cccc32)nn2c(C(=O)N[C@@H]3CC[C@H]3OC)cnc12 (some centres unmarked) [I-1073] | A (A (>90%))
2 | CNc1cc(N2CCc3c(C#CCN4CCC(N5CC6(CN(C(=O)c7ccc(Cl)c(N8CCC(=O)NC8=O)c7)C6)C5)C(F)(F)C4)cccc32)nn2c(C(=O)N[C@@H]3C[C@@H]3F)cnc12 (some centres unmarked) [I-795] | A (A (>90%))
3 | CNc1cc(N2CCc3c2cccc3C23CC(CN4CC5(CCN(C(=O)c6ccc(Cl)c(N7CCC(=O)NC7=O)c6)CC5(F)F)C4)(C2)C3)nn2c(C(=O)N[C@@H]3C[C@@H]3F)cnc12 [I-897] | B (B (90 to >75%))
4 | CNc1cc(N2CCc3c(CN4CCC(N5CCC(N6CCN(c7ccc8c(c7)n(C)c(=O)n8C7CCC(=O)NC7=O)CC6)CC5)C(F)(F)C4)cccc32)nn2c(C(=O)N[C@@H]3C[C@@H]3F)cnc12 (some centres unmarked) [I-347] | B (B (90 to >75%))
5 | CNc1cc(N2CCc3c(-c4ccc(CN5CCC6(CCN(C(=O)c7cc(C)c(Cl)c(N8CCC(=O)NC8=O)c7)CC6)C(F)(F)C5)cn4)cccc32)nn2c(C(=O)NC3CCCC3(F)F)cnc12 (centres unmarked) [I-998] | C (C (75 to 50%))
6 | CNc1cc(N2CCc3c(-c4ccc(CN5CCC6(CC5)CCN(c5ccc(Cl)c(NC7CCC(=O)NC7=O)c5)CC6)cn4)cccc32)nn2c(C(=O)NC3CC3)cnc12 (centres unmarked) [I-66] | D (D (<50%))
7 | CNc1cc(N2CCc3c(CC4CCC5(CC4)CCN(C4CCN(C(=O)c6ccc(Cl)c(N7CCC(=O)NC7=O)c6)CC4(F)F)CC5)cccc32)nn2c(C(=O)N[C@@H]3C[C@@H]3F)cnc12 (some centres unmarked) [I-800] | D (D (<50%))
8 | CNc1cc(N2CCc3c(-c4ccc(CN5CCC6(CCN(C(=O)c7ccc(Cl)c(N8CCC(=O)NC8=O)c7)C6)C5)cn4)cccc32)nn2c(C(=O)NC3CC3F)cnc12 (centres unmarked) [I-302] | C (C (75 to 50%))
9 | CNc1cc(N2CCc3c(CN4CCC(N5CCC(N6CCN(C(=O)c7ccc(Cl)c(N8CCC(=O)NC8=O)c7)CC6)C5)C(F)(F)C4)cccc32)nn2c(C(=O)N[C@@H]3C[C@@H]3F)cnc12 (some centres unmarked) [I-803] | A (A (>90%))
10 | CNc1cc(N2CCc3c(-c4ncc(CN5CC6(CCN(C(=O)c7ccc(Cl)c(N8CCC(=O)NC8=O)c7)CC6(F)F)C5)cc4F)cccc32)nn2c(C(=O)N[C@@H]3C[C@@H]3F)cnc12 [I-1023] | A (A (>90%))
11 | COC1(c2cc(-c3ccc(CN4CCC5(CC4)CCN(C(=O)c4ccc(Cl)c(N6CCC(=O)NC6=O)c4)CC5)cn3)cc(-c3cn(C)c4cnc(NC(C)=O)cc34)n2)CCOC1 (centres unmarked) [I-848] | A (A (>90%))
12 | CNc1cc(N2CCc3c(N4CCC(CN5CCC(N6CCN(c7ccc8c(c7)n(C)c(=O)n8C7CCC(=O)NC7=O)CC6)C(F)(F)C5)CC4)cccc32)nn2c(C(=O)NC3CC3)cnc12 (centres unmarked) [I-5] | C (C (75 to 50%))
13 | CNc1cc(N2CCc3c(-c4ccc(CC5CC6(CCN(C(=O)c7cc(F)c(Cl)c(N8CCC(=O)NC8=O)c7)CC6)C5)cn4)cccc32)nn2c(C(=O)N[C@@H]3CC[C@H]3OC)cnc12 [I-1104] | A (A (>90%))
14 | CNc1cc(N2CCc3c(CN4CCC(N5CCN(C(=O)c6ccc(Cl)c(N7CCC(=O)NC7=O)c6)CC5)C(F)(F)C4)cccc32)nn2c(C(=O)N[C@@H]3C[C@@H]3F)cnc12 (some centres unmarked) [I-890] | B (B (90 to >75%))
15 | CNc1cc(N2CCc3c(-c4ncc(CN5CC6(CCN(C(=O)c7cc(N8CCC(=O)NC8=O)c(Cl)c(C)n7)CC6(F)F)C5)cc4F)cc(F)cc32)nn2c(C(=O)N[C@@H]3C[C@@H]3F)cnc12 [I-1150] | A (A (>90%))
16 | CNc1cc(N2CCc3c(-c4ccc(CN5CCN(CC#Cc6cccc(N7CCC(=O)NC7=O)c6C)CC5)cn4)cccc32)nn2c(C(=O)NC3CC3F)cnc12 (centres unmarked) [I-311] | C (C (75 to 50%))
17 | CNc1cc(N2CC3(CCN(CCc4ccc5c(c4)n(C)c(=O)n5C4CCC(=O)NC4=O)CC3)c3ccccc32)nn2c(C(=O)NC3CC3)cnc12 (centres unmarked) [I-53] | D (D (<50%))
18 | CNc1cc(N2CCc3c(-c4ccc(CN5CCC(N6CCC7(CC6)CN(c6cccc8c6n(C)c(=O)n8C6CCC(=O)NC6=O)C7)C(F)(F)C5)cn4)cccc32)nn2c(C(=O)N[C@@H]3C[C@@H]3F)cnc12 (some centres unmarked) [I-280] | B (B (90 to >75%))
19 | CNc1cc(N2CCc3c(-c4ccc(CN5CCC6(CCC(Oc7ccc(Cl)c(N8CCC(=O)NC8=O)c7)CC6)CC5)cn4)cccc32)nn2c(C(=O)N[C@@H]3C[C@@H]3F)cnc12 [I-96] | D (D (<50%))

same assay, conditions: TYK2 degradation in OCI-LY10 cells, 4 to 24 hours incubation, read-out: TYK2 MSD OCI-LY10 Rel-DC50

Row | Compound | DC50 [nM]
20 | CNc1cc(N2CCc3c(CN4CCC(N5CC6(CCN(C(=O)c7cc(C)c(Cl)c(N8CCC(=O)NC8=O)c7)CC6)C5)C(F)(F)C4)cccc32)nn2c(C(=O)N[C@@H]3CC[C@H]3OC)cnc12 (some centres unmarked) [I-1073] | < 1
21 | CNc1cc(N2CCc3c(C#CCN4CCC(N5CC6(CN(C(=O)c7ccc(Cl)c(N8CCC(=O)NC8=O)c7)C6)C5)C(F)(F)C4)cccc32)nn2c(C(=O)N[C@@H]3C[C@@H]3F)cnc12 (some centres unmarked) [I-795] | < 1
22 | CNc1cc(N2CCc3c2cccc3C23CC(CN4CC5(CCN(C(=O)c6ccc(Cl)c(N7CCC(=O)NC7=O)c6)CC5(F)F)C4)(C2)C3)nn2c(C(=O)N[C@@H]3C[C@@H]3F)cnc12 [I-897] | < 10
23 | CNc1cc(N2CCc3c(CN4CCC(N5CCC(N6CCN(c7ccc8c(c7)n(C)c(=O)n8C7CCC(=O)NC7=O)CC6)CC5)C(F)(F)C4)cccc32)nn2c(C(=O)N[C@@H]3C[C@@H]3F)cnc12 (some centres unmarked) [I-347] | < 1
24 | CNc1cc(N2CCc3c(-c4ccc(CN5CCC6(CCN(C(=O)c7cc(C)c(Cl)c(N8CCC(=O)NC8=O)c7)CC6)C(F)(F)C5)cn4)cccc32)nn2c(C(=O)NC3CCCC3(F)F)cnc12 (centres unmarked) [I-998] | 10 to 100
25 | CNc1cc(N2CCc3c(-c4ccc(CN5CCC6(CC5)CCN(c5ccc(Cl)c(NC7CCC(=O)NC7=O)c5)CC6)cn4)cccc32)nn2c(C(=O)NC3CC3)cnc12 (centres unmarked) [I-66] | > 100
26 | CNc1cc(N2CCc3c(CC4CCC5(CC4)CCN(C4CCN(C(=O)c6ccc(Cl)c(N7CCC(=O)NC7=O)c6)CC4(F)F)CC5)cccc32)nn2c(C(=O)N[C@@H]3C[C@@H]3F)cnc12 (some centres unmarked) [I-800] | > 100
27 | CNc1cc(N2CCc3c(-c4ccc(CN5CCC6(CCN(C(=O)c7ccc(Cl)c(N8CCC(=O)NC8=O)c7)C6)C5)cn4)cccc32)nn2c(C(=O)NC3CC3F)cnc12 (centres unmarked) [I-302] | < 1
28 | CNc1cc(N2CCc3c(CN4CCC(N5CCC(N6CCN(C(=O)c7ccc(Cl)c(N8CCC(=O)NC8=O)c7)CC6)C5)C(F)(F)C4)cccc32)nn2c(C(=O)N[C@@H]3C[C@@H]3F)cnc12 (some centres unmarked) [I-803] | < 1
29 | CNc1cc(N2CCc3c(-c4ncc(CN5CC6(CCN(C(=O)c7ccc(Cl)c(N8CCC(=O)NC8=O)c7)CC6(F)F)C5)cc4F)cccc32)nn2c(C(=O)N[C@@H]3C[C@@H]3F)cnc12 [I-1023] | < 1
30 | COC1(c2cc(-c3ccc(CN4CCC5(CC4)CCN(C(=O)c4ccc(Cl)c(N6CCC(=O)NC6=O)c4)CC5)cn3)cc(-c3cn(C)c4cnc(NC(C)=O)cc34)n2)CCOC1 (centres unmarked) [I-848] | < 1
31 | CNc1cc(N2CCc3c(N4CCC(CN5CCC(N6CCN(c7ccc8c(c7)n(C)c(=O)n8C7CCC(=O)NC7=O)CC6)C(F)(F)C5)CC4)cccc32)nn2c(C(=O)NC3CC3)cnc12 (centres unmarked) [I-5] | < 10
32 | CNc1cc(N2CCc3c(-c4ccc(CC5CC6(CCN(C(=O)c7cc(F)c(Cl)c(N8CCC(=O)NC8=O)c7)CC6)C5)cn4)cccc32)nn2c(C(=O)N[C@@H]3CC[C@H]3OC)cnc12 [I-1104] | < 10
33 | CNc1cc(N2CCc3c(CN4CCC(N5CCN(C(=O)c6ccc(Cl)c(N7CCC(=O)NC7=O)c6)CC5)C(F)(F)C4)cccc32)nn2c(C(=O)N[C@@H]3C[C@@H]3F)cnc12 (some centres unmarked) [I-890] | < 10
34 | CNc1cc(N2CCc3c(-c4ncc(CN5CC6(CCN(C(=O)c7cc(N8CCC(=O)NC8=O)c(Cl)c(C)n7)CC6(F)F)C5)cc4F)cc(F)cc32)nn2c(C(=O)N[C@@H]3C[C@@H]3F)cnc12 [I-1150] | < 1
35 | CNc1cc(N2CCc3c(-c4ccc(CN5CCN(CC#Cc6cccc(N7CCC(=O)NC7=O)c6C)CC5)cn4)cccc32)nn2c(C(=O)NC3CC3F)cnc12 (centres unmarked) [I-311] | > 100
36 | CNc1cc(N2CC3(CCN(CCc4ccc5c(c4)n(C)c(=O)n5C4CCC(=O)NC4=O)CC3)c3ccccc32)nn2c(C(=O)NC3CC3)cnc12 (centres unmarked) [I-53] | > 100
37 | CNc1cc(N2CCc3c(-c4ccc(CN5CCC(N6CCC7(CC6)CN(c6cccc8c6n(C)c(=O)n8C6CCC(=O)NC6=O)C7)C(F)(F)C5)cn4)cccc32)nn2c(C(=O)N[C@@H]3C[C@@H]3F)cnc12 (some centres unmarked) [I-280] | < 10
38 | CNc1cc(N2CCc3c(-c4ccc(CN5CCC6(CCC(Oc7ccc(Cl)c(N8CCC(=O)NC8=O)c7)CC6)CC5)cn4)cccc32)nn2c(C(=O)N[C@@H]3C[C@@H]3F)cnc12 [I-96] | < 10
